One assay deals with HLA-A*02. As to the kind of experiment: MHC binding assay by UV-ligand exchange and beta2m ELISA, HLA-A*02. More on the design: species or system human. As to conditions: binding to HLA-A*02 ranged by peptide exchange yield (UV-ligand exchange, β2m ELISA). From the text: (§1) MHC Binding Assays Candidate peptides for T cell based therapies according to the present invention were further tested for their MHC binding capacity (affinity). The individual peptide-MHC complexes were produced by UV-ligand exchange, where a UV-sensitive peptide is cleaved upon UV-irradiation, and exchanged with the peptide of interest as analyzed. Only peptide candidates that can effectively bind and stabilize the peptide-receptive MHC molecules prevent dissociation of the MHC complexes. To determine the yield of the exchange reaction, an ELISA was performed based on the detection of the light chain (β2m) of stabilized MHC complexes. The assay was performed as generally described in Rodenko et al. (Rodenko et al., 2006).
(§2) 96 well MAXISorp plates (NUNC) were coated over night with 2 ug/ml streptavidin in PBS at room temperature, washed 4× and blocked for 1 h at 37° C. in 2% BSA containing blocking buffer. Refolded HLA-A*02:01/MLA-001 monomers served as standards, covering the range of 15-500 ng/ml. Peptide-MHC monomers of the UV-exchange reaction were diluted 100 fold in blocking buffer. Samples were incubated for 1 h at 37° C., washed four times, incubated with 2 ug/ml HRP conjugated anti-β2m for 1 h at 37° C., washed again and detected with TMB solution that is stopped with […]. Absorption was measured at 450 nm. Candidate peptides that show a high exchange yield (preferably higher than 50%, most preferred higher than 75%) are generally preferred for a generation and production of antibodies or fragments thereof, and/or T cell receptors or fragments thereof, as they show sufficient avidity to the MHC molecules and prevent dissociation of the MHC complexes.
Background: An ELISA detects its analyte on a solid surface through an enzyme-linked reagent.
On to “1 (LLYPEPWSV; listed as Homo sapiens) [compound 1]”, for which the Peptide exchange entry is reported as “++++ (> = 75% = ++++)”.

Turning to “3 (KLEENGDLYL; listed as Homo sapiens) [compound 3]”, the Peptide exchange entry was “++++ (> = 75% = ++++)”.

Consider “4 (KLMPGTYTL; listed as Homo sapiens) [compound 4]”, for which the Peptide exchange result is reported as “++++ (> = 75% = ++++)”.

Consider “12 (GLLPLLHRA; listed as Homo sapiens) [compound 12]”, for which the Peptide exchange result is listed as “++++ (> = 75% = ++++)”.

For the substance “14 (ILAKDLFEI; listed as Homo sapiens) [compound 14]”, the Peptide exchange entry was “++++ (> = 75% = ++++)”.

For the substance “16 (YTLDIPVLFGV; listed as Homo sapiens) [compound 16]”, the Peptide exchange entry was “++++ (> = 75% = ++++)”.

“34 (FLLATEVVTV; listed as Homo sapiens) [compound 34]”: the Peptide exchange entry is reported as “++++ (> = 75% = ++++)”.

On to “51 (LLFSRLCGA; listed as Homo sapiens) [compound 51]”, for which the Peptide exchange result is given as “++++ (> = 75% = ++++)”.

Take “84 (ALCPRIHEV; listed as Homo sapiens) [compound 84]”: the Peptide exchange entry was “++++ (> = 75% = ++++)”.

Consider “92 (GLLFSLRSV; listed as Homo sapiens) [compound 92]”, for which the Peptide exchange result is “++++ (> = 75% = ++++)”.

For the substance “95 (GLLGSLFFL; listed as Homo sapiens) [compound 95]”, the Peptide exchange result was “++++ (> = 75% = ++++)”.

As for “112 (SLGKFTFDV; listed as Homo sapiens) [compound 112]”, the Peptide exchange result is reported as “++++ (> = 75% = ++++)”.

As to “125 (SLADYEHFV; listed as Homo sapiens) [compound 125]”, the Peptide exchange entry is given as “++++ (> = 75% = ++++)”.

Take “126 (QMFQYFITV; listed as Homo sapiens) [compound 126]”: the Peptide exchange entry is reported as “++++ (> = 75% = ++++)”.

Take “129 (RLQDILWFL; listed as Homo sapiens) [compound 129]”: the Peptide exchange entry was “++++ (> = 75% = ++++)”.

Regarding “133 (ALLPRLHQL; listed as Homo sapiens) [compound 133]”, the Peptide exchange result is given as “++++ (> = 75% = ++++)”.

“147 (YLMDDTVEI; listed as Homo sapiens) [compound 147]”: the Peptide exchange result is “++++ (> = 75% = ++++)”.

On to “153 (FISERVEVV; listed as Homo sapiens) [compound 153]”, for which the Peptide exchange result was “++++ (> = 75% = ++++)”.

As to “229 (AILAHLNTV; listed as Homo sapiens) [compound 229]”, the Peptide exchange result is given as “++++ (> = 75% = ++++)”.

In the case of “245 (SLLDLPLSL; listed as Homo sapiens) [compound 245]”, the Peptide exchange entry is listed as “++++ (> = 75% = ++++)”.

For the substance “248 (YLDRFLAGV; listed as Homo sapiens) [compound 248]”, the Peptide exchange entry is given as “++++ (> = 75% = ++++)”.

With “257 (GLYTDPCGV; listed as Homo sapiens) [compound 257]”, the Peptide exchange result is on record as “++++ (> = 75% = ++++)”.

Regarding “258 (LLSERFINV; listed as Homo sapiens) [compound 258]”, the Peptide exchange entry is “++++ (> = 75% = ++++)”.

The test system of another assay is HLA-A*24. As to the kind of experiment: MHC binding assay by UV-ligand exchange and beta2m ELISA, HLA-A*24. More on the design: species or system human. The note with it: binding to HLA-A*24 ranged by peptide exchange yield (UV-ligand exchange, β2m ELISA).
From the text: as §1, §2
For “158 (HYSQELSLLYL; listed as Homo sapiens) [compound 158]”, the Peptide exchange entry is “++++ (> = 75% = ++++)”.

Take “159 (LYNKGFIYL; listed as Homo sapiens) [compound 159]”: the Peptide exchange entry is given as “++++ (> = 75% = ++++)”.

In the case of “163 (DYLKGLASF; listed as Homo sapiens) [compound 163]”, the Peptide exchange entry is recorded as “++++ (> = 75% = ++++)”.

Consider “165 (DYTTWTALL; listed as Homo sapiens) [compound 165]”, for which the Peptide exchange result is reported as “++++ (> = 75% = ++++)”.

Regarding “167 (NYINRILKL; listed as Homo sapiens) [compound 167]”, the Peptide exchange result is reported as “++++ (> = 75% = ++++)”.

“204 (TYELRYFQI; listed as Homo sapiens) [compound 204]”: the Peptide exchange result is recorded as “++++ (> = 75% = ++++)”.

A further assay relates to CD8+ T cells. Kind of assay: In vitro T-cell priming assay (aAPCs loaded with peptide/MHC and anti-CD28, multimer staining readout). The note with it: CD8+ T cells of healthy donors, three stimulation cycles with peptide/MHC and anti-CD28 coated beads. The format is cell-based, human. On the procedure: In an aspect, the peptides are pre-screened for immunogenicity before being included in the warehouse. By way of example, and not limitation, the immunogenicity of the peptides included in the warehouse is determined by a method comprising in vitro T-cell priming through repeated stimulations of CD8+ T cells from healthy donors with artificial antigen presenting cells loaded with peptide/MHC complexes and anti-CD28 antibody.
In order to obtain information regarding the immunogenicity of the TUMAPs of the present invention, the inventors performed investigations using an in vitro T-cell priming assay based on repeated stimulations of CD8+ T cells with artificial antigen presenting cells (aAPCs) loaded with peptide/MHC complexes and anti-CD28 antibody.
In order to perform in vitro stimulations by artificial antigen presenting cells loaded with peptide-MHC complex (pMHC) and anti-CD28 antibody, the inventors first isolated CD8+ T cells from fresh HLA-A*02 leukapheresis products via positive selection using CD8 microbeads (Miltenyi Biotec, Bergisch-Gladbach, Germany) of healthy donors obtained from the University clinics Mannheim, Germany, after informed consent.
PBMCs and isolated CD8+ lymphocytes were incubated in T-cell medium (TCM) until use consisting of RPMI-Glutamax (Invitrogen, Karlsruhe, Germany) supplemented with 10% heat inactivated human AB serum (PAN-Biotech, Aidenbach, Germany), 100 U/ml Penicillin/100 μg/ml Streptomycin (Cambrex, Cologne, Germany), 1 mM sodium pyruvate (CC Pro, Oberdorla, Germany), 20 μg/ml Gentamycin (Cambrex). 2.5 ng/ml IL7 (PromoCell, Heidelberg, Germany) and 10 U/ml IL-2 (Novartis Pharma, Nürnberg, Germany) were also added to the TCM at this step.
Generation of pMHC/anti-CD28 coated beads, T-cell stimulations and readout was performed in a highly defined in vitro system using four different pMHC molecules per stimulation condition and 8 different pMHC molecules per readout condition.
The purified co-stimulatory mouse IgG2a anti human CD28 Ab 9.3 (Jung et al., 1987) was chemically biotinylated using Sulfo-N-hydroxysuccinimidobiotin as recommended by the manufacturer (Perbio, Bonn, Germany). Beads used were 5.6 μm diameter streptavidin coated polystyrene particles (Bangs Laboratories, Illinois, USA).
pMHC used for positive and negative control stimulations were A*0201/MLA-001 (peptide […] (SEQ ID NO. 303) from modified Melan-A/MART-1) and A*0201/DDX5-001 ([…] from DDX5, SEQ ID NO. 304), respectively.
800.000 beads/200 μl were coated in 96-well plates in the presence of 4×12.5 ng different biotin-pMHC, washed and 600 ng biotin anti-CD28 were added subsequently in a volume of 200 μl. Stimulations were initiated in 96-well plates by co-incubating 1×10^6 CD8+ T cells with 2×10^5 washed coated beads in 200 μl TCM supplemented with 5 ng/ml IL-12 (PromoCell) for 3 days at 37° C. Half of the medium was then exchanged by fresh TCM supplemented with 80 U/ml IL-2 and incubating was continued for 4 days at 37° C. This stimulation cycle was performed for a total of three times. For the pMHC multimer readout using 8 different pMHC molecules per condition, a two-dimensional combinatorial coding approach was used as previously described (Andersen et al., 2012) with minor modifications encompassing coupling to 5 different fluorochromes. Finally, multimeric analyses were performed by staining the cells with Live/dead near IR dye (Invitrogen, Karlsruhe, Germany), CD8-FITC antibody clone SK1 (BD, Heidelberg, Germany) and fluorescent pMHC multimers. For analysis, a BD LSRII SORP cytometer equipped with appropriate lasers and filters was used. Peptide specific cells were calculated as percentage of total CD8+ cells. Evaluation of multimeric analysis was done using the FlowJo software (Tree Star, Oregon, USA). In vitro priming of specific multimer+CD8+ lymphocytes was detected by comparing to negative control stimulations.
Take “291 (KLDETGNSL; listed as Homo sapiens) [compound 291]”: the “Wells (in vitro immunogenicity of HLA class I peptides)” value was “+ (<20% = +)”.

In the case of “292 (GMMTAILGV; listed as Homo sapiens) [compound 292]”, the “Wells (in vitro immunogenicity of HLA class I peptides)” value was “+ (<20% = +)”.

In the case of “293 (FLVDGSWSI; listed as Homo sapiens) [compound 293]”, the “Wells (in vitro immunogenicity of HLA class I peptides)” value is listed as “+ (<20% = +)”.

“296 (TYVDSSHTI; listed as Homo sapiens) [compound 296]”: the “Wells (in vitro immunogenicity of HLA class I peptides)” value is recorded as “+ (<20% = +)”.

On to “298 (RYLEGTSCI; listed as Homo sapiens) [compound 298]”, for which the “Wells (in vitro immunogenicity of HLA class I peptides)” value is “+ (<20% = +)”.

Consider “300 (AYVLRLETL; listed as Homo sapiens) [compound 300]”, for which the “Wells (in vitro immunogenicity of HLA class I peptides)” value is “+ (<20% = +)”.

Regarding “301 (AYKPGALTF; listed as Homo sapiens) [compound 301]”, the “Wells (in vitro immunogenicity of HLA class I peptides)” value was “+ (<20% = +)”.

Staying with this assay, now noted: in vitro immunogenicity of HLA class I peptides.
Consider “4 (KLMPGTYTL; listed as Homo sapiens) [compound 4]”, for which the “Wells positive [%]” value is on record as “+ (<20% = +)”.

“12 (GLLPLLHRA; listed as Homo sapiens) [compound 12]”: the “Wells positive [%]” value was “++++ (> = 70% = ++++)”.

On to “158 (HYSQELSLLYL; listed as Homo sapiens) [compound 158]”, for which the “Wells positive [%]” value is reported as “+ (<20% = +)”.

For “159 (LYNKGFIYL; listed as Homo sapiens) [compound 159]”, the “Wells positive [%]” value was “++++ (> = 70% = ++++)”.

“163 (DYLKGLASF; listed as Homo sapiens) [compound 163]”: the “Wells positive [%]” value is given as “+ (<20% = +)”.

For the substance “165 (DYTTWTALL; listed as Homo sapiens) [compound 165]”, the “Wells positive [%]” value was “+ (<20% = +)”.

Consider “167 (NYINRILKL; listed as Homo sapiens) [compound 167]”, for which the “Wells positive [%]” value is listed as “+ (<20% = +)”.

With “204 (TYELRYFQI; listed as Homo sapiens) [compound 204]”, the “Wells positive [%]” value is “+ (<20% = +)”.

“218 (YYKSTSSAF; listed as Homo sapiens) [compound 218]”: the “Wells positive [%]” value is given as “+ (<20% = +)”.

“230 (KLQNIMMLL; listed as Homo sapiens) [compound 230]”: the “Wells positive [%]” value was “++++ (> = 70% = ++++)”.

For the substance “268 (QYLGQIQHI; listed as Homo sapiens) [compound 268]”, the “Wells positive [%]” value is listed as “+ (<20% = +)”.

For “269 (YFIDSTNLKTHF; listed as Homo sapiens) [compound 269]”, the “Wells positive [%]” value is “+ (<20% = +)”.

Take “285 (HYPPVQVLF; listed as Homo sapiens) [compound 285]”: the “Wells positive [%]” value is reported as “+ (<20% = +)”.

Source of the values: patent publication US10143731B2, “Peptides and combination of peptides for use in immunotherapy against various cancers” (immatics biotechnologies GmbH, priority 2015, dated 2018).
